According to PMC7153038, “Pharmacologic inhibition of RGD‐binding integrins ameliorates fibrosis and improves function following kidney injury” (Physiological Reports, 2020):

Assays:
integrin α5β1 = target: T1, integrin α5β1 (Homo sapiens, UniProt P05556+P08648); assay: integrin α5β1-mediated attachment of K562 cells to human plasma fibronectin; type: cell-based; conditions: mean and SD, at least 3 independent assays, read-out: IC50, inhibition of α5β1-mediated cell attachment
T1 construct: K562 cells, which naturally express this integrin; endogenous in cells; host or cells: K562
T1 sequence (P08648 42-894 limits assumed): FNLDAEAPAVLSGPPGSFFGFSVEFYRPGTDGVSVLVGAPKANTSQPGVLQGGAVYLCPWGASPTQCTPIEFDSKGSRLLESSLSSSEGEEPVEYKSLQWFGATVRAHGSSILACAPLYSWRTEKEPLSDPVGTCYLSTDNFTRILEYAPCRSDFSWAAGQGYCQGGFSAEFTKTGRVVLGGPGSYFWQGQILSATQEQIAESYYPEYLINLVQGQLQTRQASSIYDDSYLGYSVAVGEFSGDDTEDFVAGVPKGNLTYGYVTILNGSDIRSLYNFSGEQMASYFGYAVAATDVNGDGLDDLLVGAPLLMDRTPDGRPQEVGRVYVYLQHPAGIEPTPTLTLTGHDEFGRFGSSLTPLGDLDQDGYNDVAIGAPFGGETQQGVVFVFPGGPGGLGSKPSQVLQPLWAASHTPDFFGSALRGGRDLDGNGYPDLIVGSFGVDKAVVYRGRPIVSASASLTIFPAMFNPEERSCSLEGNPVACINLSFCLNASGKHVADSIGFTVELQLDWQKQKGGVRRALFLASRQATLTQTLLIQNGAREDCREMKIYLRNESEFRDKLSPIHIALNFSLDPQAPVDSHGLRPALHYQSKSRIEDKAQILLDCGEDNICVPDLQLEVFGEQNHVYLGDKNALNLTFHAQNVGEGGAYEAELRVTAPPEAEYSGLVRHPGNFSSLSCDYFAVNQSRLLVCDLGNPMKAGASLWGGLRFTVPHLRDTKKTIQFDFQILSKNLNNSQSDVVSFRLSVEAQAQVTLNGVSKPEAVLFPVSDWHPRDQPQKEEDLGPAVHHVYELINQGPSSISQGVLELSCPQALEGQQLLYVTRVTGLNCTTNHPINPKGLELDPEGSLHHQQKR
T1 sequence (P08648 895-1049 partner limits assumed): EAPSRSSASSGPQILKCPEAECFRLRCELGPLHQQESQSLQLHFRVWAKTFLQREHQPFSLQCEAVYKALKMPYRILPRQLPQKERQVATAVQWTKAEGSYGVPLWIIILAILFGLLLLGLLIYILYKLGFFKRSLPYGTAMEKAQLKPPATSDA
T1 sequence (P05556 21-798): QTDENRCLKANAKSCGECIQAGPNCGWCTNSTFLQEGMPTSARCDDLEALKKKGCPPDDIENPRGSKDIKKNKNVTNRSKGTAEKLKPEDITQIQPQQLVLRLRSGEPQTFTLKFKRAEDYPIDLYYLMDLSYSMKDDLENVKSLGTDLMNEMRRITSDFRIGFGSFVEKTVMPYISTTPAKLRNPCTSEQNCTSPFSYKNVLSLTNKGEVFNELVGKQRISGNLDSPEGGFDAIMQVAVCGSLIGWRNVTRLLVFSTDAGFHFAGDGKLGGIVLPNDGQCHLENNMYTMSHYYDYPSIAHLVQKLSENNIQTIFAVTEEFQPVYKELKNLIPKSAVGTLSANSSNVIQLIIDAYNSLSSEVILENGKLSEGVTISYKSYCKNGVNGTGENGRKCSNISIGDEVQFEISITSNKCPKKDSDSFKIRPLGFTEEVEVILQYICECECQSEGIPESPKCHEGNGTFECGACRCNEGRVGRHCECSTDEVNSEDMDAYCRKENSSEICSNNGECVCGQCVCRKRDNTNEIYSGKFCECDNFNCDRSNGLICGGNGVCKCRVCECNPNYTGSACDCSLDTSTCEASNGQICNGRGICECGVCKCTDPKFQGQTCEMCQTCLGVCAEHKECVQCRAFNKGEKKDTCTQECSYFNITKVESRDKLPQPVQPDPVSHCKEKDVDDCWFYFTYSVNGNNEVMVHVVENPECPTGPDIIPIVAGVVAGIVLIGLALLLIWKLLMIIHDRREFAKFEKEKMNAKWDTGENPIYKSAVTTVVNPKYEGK

integrin α8β1 = target: T2, integrin α8β1 (Homo sapiens, UniProt P05556+P53708); assay: integrin α8β1-mediated attachment of transfected HEK-293 cells to mouse nephronectin; type: cell-based; conditions: mean and SD, at least 3 independent assays; transfected HEK-293, nephronectin; read-out: IC50, inhibition of α8β1-mediated cell attachment
T2 construct: expressed in transfected cells
T2 sequence (P53708 39-906 limits assumed): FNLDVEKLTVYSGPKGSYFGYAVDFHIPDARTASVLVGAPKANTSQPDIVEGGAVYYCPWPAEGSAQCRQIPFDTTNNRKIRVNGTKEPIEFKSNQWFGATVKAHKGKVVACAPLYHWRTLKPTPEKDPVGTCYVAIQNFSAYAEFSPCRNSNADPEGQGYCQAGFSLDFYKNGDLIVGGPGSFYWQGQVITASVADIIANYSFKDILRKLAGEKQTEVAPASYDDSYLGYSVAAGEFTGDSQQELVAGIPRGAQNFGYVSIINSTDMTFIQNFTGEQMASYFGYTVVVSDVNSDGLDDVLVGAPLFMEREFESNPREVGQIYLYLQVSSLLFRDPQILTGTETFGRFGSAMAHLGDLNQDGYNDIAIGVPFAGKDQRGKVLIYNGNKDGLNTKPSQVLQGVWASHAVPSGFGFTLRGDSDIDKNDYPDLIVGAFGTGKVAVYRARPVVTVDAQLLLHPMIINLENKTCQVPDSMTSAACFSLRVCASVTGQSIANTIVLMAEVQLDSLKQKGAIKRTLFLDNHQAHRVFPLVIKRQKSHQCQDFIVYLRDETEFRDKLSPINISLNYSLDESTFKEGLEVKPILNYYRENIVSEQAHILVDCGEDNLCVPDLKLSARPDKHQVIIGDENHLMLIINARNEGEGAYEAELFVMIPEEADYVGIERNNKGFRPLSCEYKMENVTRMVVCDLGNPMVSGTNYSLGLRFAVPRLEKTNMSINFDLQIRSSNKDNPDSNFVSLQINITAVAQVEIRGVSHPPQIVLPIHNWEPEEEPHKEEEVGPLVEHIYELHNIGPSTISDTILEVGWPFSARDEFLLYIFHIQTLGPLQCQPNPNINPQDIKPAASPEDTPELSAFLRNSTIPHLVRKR
T2 sequence (P53708 907-1063 partner limits assumed): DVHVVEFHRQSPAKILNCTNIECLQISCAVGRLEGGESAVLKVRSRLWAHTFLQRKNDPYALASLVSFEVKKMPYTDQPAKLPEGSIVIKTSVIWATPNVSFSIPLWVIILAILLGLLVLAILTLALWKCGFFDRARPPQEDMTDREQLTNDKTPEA
T2 sequence (P05556 21-798): as the sequence (P05556 21-798) above
Method: The RGD peptidomimetic CWHM‐12 was synthesized as described in detail previously (Henderson et al., 2013). A close structural analog of this compound with improved oral bioavailability, CWHM‐680, was also synthesized at Saint Louis University. Potency for the compounds in blocking cell attachment mediated by integrins αvβ3, αvβ5, and αvβ6 was measured as previously described (Henderson et al., 2013). Potency for blocking cell attachment mediated by integrins αvβ1, αvβ8, and α8β1 was measured using modifications of this method which are briefly summarized as follows: To assess CWHM‐12 and CWHM‐680 effects on cellular αvβ1 function, we varied its concentration in an assay measuring binding of HEK‐293 cells, which naturally express this integrin (Nagarajan et al., 2007), to the surface of 96‐well plates coated with purified recombinant human TGFβ‐1 latency‐associated peptide (R&D Systems). To assess the effect on cellular αvβ8 function, we performed the assay with the same LAP ligand but with HEK‐293 cells which had been stably transfected to overexpress this integrin. To assess the effect on cellular α8β1 function, we performed the assay using HEK‐293 cells, which had been stably transfected to overexpress this integrin and used purified recombinant mouse nephronectin as the immobilized ligand (R&D Systems). […]

[1] = tested on: Collagen 1 protein in kidney; assay: aristolochic acid kidney injury model, Collagen 1 Western blot; type: in vivo, mouse; conditions: AA-injured, 100 mg/kg/day s.c. minipump
Method: Alzet osmotic minipumps (Cupertino, CA) were implanted subcutaneously in 8‐ to 10‐week‐old wild‐type male ICR outbred mice (Envigo) one day prior to induction of kidney injury to deliver vehicle (DMSO/H2O 1:1) or CWHM‐12 at a dose of 100 mg/kg per day. A single 5 mg/kg dose of aristolochic acid I sodium salt (Sigma‐Aldrich, A9451) in PBS was administered intraperitoneally to induce kidney injury, and mice were monitored daily for 27 days thereafter. Control (uninjured) mice were injected with an equal volume of PBS. Blood was obtained by maxillary vein puncture on days 0, 5 (peak injury), and 28 (study endpoint). For testing CWHM‐680, oral gavage (100 mg/kg per day) was started one day prior to injection of aristolochic acid I sodium salt and continued once daily until the study endpoint. Blood was obtained at days 0, 7, and 23 (study endpoint). […] Serum creatinine was measured by liquid chromatography–mass spectrometry (LC–MS/MS) at the University of Alabama O’Brien Center Bioanalytical Core. CWHM‐12 and CWHM‐680 concentrations were measured in plasma samples by liquid chromatography–tandem mass spectrometry (LC/MS/MS) using compound spiked into control plasma as a standard. All experiments were performed under protocols approved by the Institutional Animal Care and Use Committee at St. Louis University. […]

[2] = plasma compound concentration by LC/MS/MS; type: in vivo, mouse; conditions: 100 mg/kg per day s.c. by Alzet minipump
Method: (§1) Alzet osmotic minipumps (Cupertino, CA) were implanted subcutaneously in 8‐ to 10‐week‐old wild‐type male ICR outbred mice (Envigo) one day prior to induction of kidney injury to deliver vehicle (DMSO/H2O 1:1) or CWHM‐12 at a dose of 100 mg/kg per day. A single 5 mg/kg dose of aristolochic acid I sodium salt (Sigma‐Aldrich, A9451) in PBS was administered intraperitoneally to induce kidney injury, and mice were monitored daily for 27 days thereafter. Control (uninjured) mice were injected with an equal volume of PBS. Blood was obtained by maxillary vein puncture on days 0, 5 (peak injury), and 28 (study endpoint). For testing CWHM‐680, oral gavage (100 mg/kg per day) was started one day prior to injection of aristolochic acid I sodium salt and continued once daily until the study endpoint. Blood was obtained at days 0, 7, and 23 (study endpoint). […] Serum creatinine was measured by liquid chromatography–mass spectrometry (LC–MS/MS) at the University of Alabama O’Brien Center Bioanalytical Core. CWHM‐12 and CWHM‐680 concentrations were measured in plasma samples by liquid chromatography–tandem mass spectrometry (LC/MS/MS) using compound spiked into control plasma as a standard. All experiments were performed under protocols approved by the Institutional Animal Care and Use Committee at St. Louis University.

[3] = observation of deleterious effects in treated animals; type: in vivo, mouse; conditions: 100 mg/kg/day s.c. minipump, 28 days
Method: as §1

[4] = tested on: non‐RGD‐binding integrins; design: method as in Henderson et al., 2013; conditions: ref Henderson et al., 2013; cited from earlier work

SMILES: CC(C)(C)c1cc(Br)cc([C@H](CC(=O)O)NC(=O)CNC(=O)c2cc(O)cc(NC3=NCC(O)CN3)c2)c1 (stereo partly shown) [CWHM‐12]
- IC50 (integrin α5β1): 8 ± 3.9 nM
- IC50 (integrin α8β1): 35 ± 16 nM
- Collagen 1 protein reduction by Western blot compared with vehicle ([1]; day 27): threefold
- Collagen 1 densitometry normalized to HDAC2 ([1]; vehicle 2.14 ± 0.39): 0.719 ± 0.13 arbitrary units
- mean steady plasma drug concentration [2]: approximately 5 µg/ml
- obvious deleterious effects in treated animals [3]: did not observe obvious deleterious effects
- effect on ligand binding by non‐RGD‐binding integrins [4]: nor does it affect ligand binding
